# Values joined by “and” are separate entries in the source; they are usually repeats but may differ in a detail not shown here. Equal entries are not always repeated.
# Key:
# Human P2Y1-R [1] = target: T1, Human P2Y1-R (Homo sapiens, UniProt P47900); test: Gαq protein activation BRET2 assay (Gαq-RLuc8/GFP2-Gγ2/Gβ1) in HEK293T cells expressing P2Y1-R; type: cell-based; set-up: ADP-modulated BRET / MRS2179-modulated BRET: unit not given here; conditions: for G protein signaling, Ligand-modulated BRET (% of maximum MRS2179 mean value): Figure 4a, individual replicates
# T1 construct: expressed in transfected cells; host or cells: HEK293T/17
# T1 sequence (P47900 whole entry): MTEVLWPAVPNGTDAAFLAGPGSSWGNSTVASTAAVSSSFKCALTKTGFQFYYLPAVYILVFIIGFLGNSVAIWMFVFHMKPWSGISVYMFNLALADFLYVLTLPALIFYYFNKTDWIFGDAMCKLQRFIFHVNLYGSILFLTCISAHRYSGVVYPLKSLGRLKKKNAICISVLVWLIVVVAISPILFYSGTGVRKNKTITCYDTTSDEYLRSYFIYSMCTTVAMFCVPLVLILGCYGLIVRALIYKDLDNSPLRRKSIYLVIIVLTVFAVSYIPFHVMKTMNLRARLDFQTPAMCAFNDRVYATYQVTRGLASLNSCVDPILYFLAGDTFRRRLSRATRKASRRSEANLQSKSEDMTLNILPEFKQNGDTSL
# Text: As previously described, using a BRET^2 (bioluminescence resonance energy transfer)-based assay, we directly monitored the basal Gαq protein activation by measuring the interaction between Gαq and Gγ2 subunits of the Gαqβ1γ2 heterotrimer complex. Indeed, this assay is based on the non-radiative transfer between the Renilla reniformis luciferase (RLuc8) energy donor fused to the Gαq protein subunit and the fluorescent GFP2 energy acceptor fused to Gγ2 protein subunit (Fig. 1a). […] By contrast, ligand-independent constitutive receptor activation or agonist-induced receptor activation will promote Gαq/Gγ2 subunit dissociation, thereby leading to a decrease of the basal BRET signal (Fig. 1a). […] To preclude any P2Y1-R activation by a passive release of ADP by HEK293T cells, we performed similar experiments in the presence of high concentration of apyrase (0.2U/mL) to degrade any trace of ADP in the medium (Additional File 2: Fig. S2a). Under these conditions, P2Y1-R expression still induces a marked and significant decrease of the basal BRET signal compared to control cells (pcDNA3.1), thereby supporting a P2Y1-R-dependent constitutive activation of Gαq protein. […] Of note, because P2Y1-R and AT1-R were respectively Myc- and HA-tagged and were thus detected using different primary antibodies, their expression at the cell surface cannot be compared between each other’s.
# Human P2Y1-R (NCBI Reference Sequence: NM_002563.2) and P2Y12-R (NCBI Reference Sequence: NM_022788.3) were fused to double Myc epitope and rat AT1-R (NCBI Reference Sequence: NM_030985.4) to HA tag in N-terminus extracellular region. Alternatively, receptors were also fused to Venus tag in C-terminus intracellular region. Plasmids encoding Gαq-RLuc8, GFP2-Gγ2 and untagged Gβ1 were previously described. ADP was purchased from Sigma-Aldrich/Merck (Darmstadt, Germany). […] The Gq inhibitor (FR900359) was kindly supplied by Evi Kostenis (University of Bonn. Germany).
# G protein activation and β-arrestin 2 recruitment were performed as previously described. Briefly, vectors encoding receptors, Gαq-RLuc8, GFP2-Gγ2, Gβ1, or β-arrestin 2 were transiently cotransfected into HEK293T/17 cells as indicated in the figure legends. Forty-eight hours after transfection, cells were washed and resuspended in PBS containing 0.1% (w/v) glucose at room temperature and then distributed (80 μg proteins/well) in a 96-well microplate (PerkinElmer). For G protein activation experiments (BRET^2), cells were incubated in the absence (basal BRET signal) or in the presence of ligand for 1 minute. BRET signal between RLuc8 and GFP2 was measured after addition of the luciferase substrate coelenterazine 400a (5 μM). For β-arrestin 2 recruitment (BRET^1), cells were stimulated with ligands for 5 or 15 min. BRET signal was recorded after incubation with coelenterazine h (5 μM) for 8 min. For kinetics studies, BRET signal between RLuc and Venus was recorded at 20-s intervals at basal state for the 2 first minutes and then for 5 min after ligand injection. For saturation curves (BRET^1), the expression level of Venus- or RLuc-tagged protein was determined by direct measurement of total fluorescence and luminescence respectively. Total fluorescence was first measured with an excitation filter at 485 nm and an emission filter at 520 nm. Then, the same sample was incubated for 8 minutes with 5 μM coelenterazine h and the total luminescence was measured. BRET^2 and BRET^1 readings were collected using a modified Infinite F500 (Tecan Group Ltd). The BRET^2 signal was calculated by the ratio of emission of GFP2 (510–540 nm) to RLuc8 (370–450 nm) and the BRET^1 signal by the ratio of emission of Venus (520–570 nm) to RLuc (370–480 nm). […]
# Human P2Y1-R [2] = target: T1, Human P2Y1-R; test: IP1 accumulation assay (HTRF) in HEK293T cells expressing P2Y1-R; type: cell-based; conditions: MRS2179 10 μM, 2 h
# Description: Since Gαq protein activation is known to induce PLC activation leading to IP3 and subsequent cytosolic calcium release, we analyzed the constitutive Gαq-dependent P2Y1-R signaling by quantifying intracellular inositol monophosphate (IP1) using a monoclonal antibody-based competitive ELISA. IP1 is a downstream metabolite of IP3 that accumulates in cells following Gαq protein-coupled receptor activation, making it an ideal readout for Gαq protein-dependent signaling pathways.
# Human P2Y12-R = target: T2, Human P2Y12-R (Homo sapiens, UniProt Q9H244); test: IP1 accumulation assay (HTRF) in HEK293T cells expressing P2Y12-R; type: cell-based; conditions: MRS2179 10 μM, 2 h
# T2 construct: expressed in transfected cells; host or cells: HEK293T/17
# T2 sequence (Q9H244 whole entry): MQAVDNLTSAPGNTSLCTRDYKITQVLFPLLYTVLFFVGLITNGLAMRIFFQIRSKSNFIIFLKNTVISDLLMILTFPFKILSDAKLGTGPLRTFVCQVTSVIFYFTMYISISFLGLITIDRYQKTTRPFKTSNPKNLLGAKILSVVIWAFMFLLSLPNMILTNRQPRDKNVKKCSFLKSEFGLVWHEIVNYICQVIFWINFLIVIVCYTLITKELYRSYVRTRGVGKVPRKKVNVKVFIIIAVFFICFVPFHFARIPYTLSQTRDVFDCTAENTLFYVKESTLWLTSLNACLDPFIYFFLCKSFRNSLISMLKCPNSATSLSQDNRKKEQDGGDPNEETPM
# [3] = test system: washed murine platelets (P2Y1-R/Gαq signaling); test: IP1 accumulation assay (HTRF) in washed murine platelets; type: cell-based, mouse; conditions: MRS2179 10 μM, 2 h
# Description: As performed in HEK293T cells, we thus quantified intracellular IP1 levels to monitor Gαq protein-dependent signaling pathways.
# Platelet-rich plasma (PRP) was obtained by mixing blood with 1 volume of modified Hepes Tyrode’s buffer (137 mM NaCl, 2 mM KCl, 12 mM NaHCO3, 0.3 mM NaH2PO4, 1 mM MgCl2, 2 mM CaCl2, 5.5 mM glucose, 5 mM HEPES, and 0.35% (w/v) BSA, pH 6.7) followed by a centrifugation at 150 g for 2 min at 37 °C. Then, platelets were pelleted by centrifugation at 1000 g for 4 min, resuspended in modified Hepes Tyrode’s buffer (pH 7.4), adjusted to 3.10^8 platelets/mL in the presence of 0.02 U/mL of apyrase and 10 μM indomethacin and rested for 45 minutes at 37°C before platelet stimulation. PGI2 (0.5 μM) was added before centrifugation steps to avoid platelet activation.
# Quantification of intracellular IP1 was performed using the HTRF (Homogeneous Time Resolved Fluorescence) IP1 competitive immunoassay (IP-One Tb kit. Cisbio. France) according to the manufacturer’s instructions. Briefly, 20,000 HEK293T/17 cells or 3.10^6 platelets were distributed in a 384-well white microplate (Greiner) and incubated with the indicated molecules for 30 min or 2 h at 37 °C in the presence of 50 mM of LiCl to prevent IP1 degradation. After addition of d2-labeled IP1 (acceptor) and anti-IP1-Cryptate (donor) for 1 h, the specific FRET signals were calculated by the fluorescence ratio of the acceptor and donor emission signal (665/620 nm) collected using a modified Infinite F500 (Tecan Group Ltd). Conversion of the HTRF ratio of each sample into IP1 concentrations was performed on the basis of a standard curve to determine the linear dynamic range of the assay.
# [4] = G protein signaling, Fig. 4a, 1 min
smiles,measurement,setting,value
CNc1ncnc2c1ncn2[C@H]1C[C@H](OP(=O)(O)O)[C@@H](COP(=O)(O)O)O1 [MRS2179],"Maximal efficacy (Emax ± s.e.m.), MRS2179-modulated BRET","Human P2Y1-R [1]; Fig. 1f, 1 min stimulation, difference in BRET signal with and without ligand",0.1224 ± 0.01335
same,EC50,"Human P2Y1-R [1]; Fig. 1f, MRS2179 inverse agonism on Gαq protein activity, 1 min",11.1 µM
same,pEC50 ± s.e.m.,"Human P2Y1-R [1]; Fig. 1f, inverse agonism on Gαq protein activity, 1 min",4.955 ± 0.1405
same,"G protein signaling, Ligand-modulated BRET (% of maximum MRS2179 mean value)",Human P2Y1-R [1]; [Ligand] 1.00E-04 M,119.465 % of maximum MRS2179 mean value and 98.3727 % of maximum MRS2179 mean value and 97.2091 % of maximum MRS2179 mean value and 96.9774 % of maximum MRS2179 mean value and 99.1946 % of maximum MRS2179 mean value and 88.7807 % of maximum MRS2179 mean value
same,"G protein signaling, Ligand-modulated BRET (% of maximum MRS2179 mean value)",Human P2Y1-R [1]; [Ligand] 1.00E-05 M,56.3081 % of maximum MRS2179 mean value and 33.7445 % of maximum MRS2179 mean value and 25.9535 % of maximum MRS2179 mean value and 52.677 % of maximum MRS2179 mean value and 40.3542 % of maximum MRS2179 mean value and 35.9046 % of maximum MRS2179 mean value
same,"G protein signaling, Ligand-modulated BRET (% of maximum MRS2179 mean value)",Human P2Y1-R [1]; [Ligand] 1.00E-06 M,9.486 % of maximum MRS2179 mean value and 10.5017 % of maximum MRS2179 mean value and 11.1842 % of maximum MRS2179 mean value and 16.1238 % of maximum MRS2179 mean value and -1.632 % of maximum MRS2179 mean value and 9.136 % of maximum MRS2179 mean value
same,"G protein signaling, Ligand-modulated BRET (% of maximum MRS2179 mean value)",Human P2Y1-R [1]; [Ligand] 1.00E-07 M,-1.306 % of maximum MRS2179 mean value and -6.5129 % of maximum MRS2179 mean value and -11.3924 % of maximum MRS2179 mean value and -9.0003 % of maximum MRS2179 mean value and -8.705 % of maximum MRS2179 mean value and -1.657 % of maximum MRS2179 mean value
same,"G protein signaling, Ligand-modulated BRET (% of maximum MRS2179 mean value)",Human P2Y1-R [1]; [Ligand] 1.00E-08 M,0.5671 % of maximum MRS2179 mean value and -5.257 % of maximum MRS2179 mean value and -11.3188 % of maximum MRS2179 mean value and -7.6778 % of maximum MRS2179 mean value and -4.305 % of maximum MRS2179 mean value and -3.069 % of maximum MRS2179 mean value
same,"G protein signaling, Ligand-modulated BRET (% of maximum MRS2179 mean value)",Human P2Y1-R [1]; [Ligand] 1.00E-09 M,-1.107 % of maximum MRS2179 mean value and -5.538 % of maximum MRS2179 mean value and -15.6317 % of maximum MRS2179 mean value and -13.6938 % of maximum MRS2179 mean value and -9.3466 % of maximum MRS2179 mean value and -3.722 % of maximum MRS2179 mean value
same,"G protein signaling, Ligand-modulated BRET (% of maximum MRS2179 mean value)",Human P2Y1-R [1]; [Ligand] 1.00E-10 M,-2.846 % of maximum MRS2179 mean value and -13.4143 % of maximum MRS2179 mean value and -1.422 % of maximum MRS2179 mean value and -10.0078 % of maximum MRS2179 mean value and -9.182 % of maximum MRS2179 mean value and 0.7769 % of maximum MRS2179 mean value
same,EC50,Human P2Y1-R [1]; [4],15.2 µM
same,pEC50 ± s.e.m.,Human P2Y1-R [1]; [4],4.817 ± 0.0671
same,Emax ± s.e.m.,"Human P2Y1-R [1]; G protein signaling, Fig. 4a, 1 min, normalized to the mean value of maximal MRS2179 response, in %",115.7 ± 5.057
same,Behaviour on P2Y1-R-dependent constitutive Gαq protein activation,"Human P2Y1-R [1]; HEK293T cells, result in words",inverse agonist
same,MRS2179-modulated BRET,"Human P2Y1-R [1]; [MRS2179] 1.00E-04 M, 1 min",0.06995 and 0.1332 and 0.1164 and 0.136 and 0.09077
same,Effect on IP1 production,"Human P2Y1-R [2]; ADP 100 μM, Gq inhibitor 100 nM, result in words",strongly inhibited
same,IP1 concentration,Human P2Y1-R [2]; P2Y1-R,323.411 nM and 417.936 nM and 377.702 nM and 245.513 nM and 385.824 nM
same,IP1 concentration,Human P2Y12-R,90.2229 nM and 91.7585 nM and 129.706 nM and 87.0301 nM and 114.326 nM
same,IP1 concentration (% matched basal values),"[3]; murine platelets, individual mice",42.6495 % matched basal values and 45.455 % matched basal values and 38.903 % matched basal values and 51.5072 % matched basal values and 54.7749 % matched basal values and 40.3524 % matched basal values and 43.9466 % matched basal values and 64.234 % matched basal values and 61.4369 % matched basal values and 43.9485 % matched basal values and 57.6391 % matched basal values and 59.347 % matched basal values and 42.2435 % matched basal values
same,Effect on IP1 levels,"[3]; washed murine platelets, ADP 100 μM, Gq inhibitor 100 nM, apyrase 0.02 U/mL, result in words",decreased IP1 levels
